Patent publication US8088951B2, “Epigenetic mechanisms re-establish access to long-term memory after neuronal loss” (Massachusetts Institute of Technology, priority 2006, dated 2012)

How the values were obtained:
[1] = system: C57BL/6J mice; test: Contextual fear conditioning (associative learning) in wild type mice; assay type: in vivo; conditions: for associative learning, contextual fear conditioning paradigm: wildtype mice, chronic treatment for 10-21 days
From the text: Learning tests: All behavioral testing is described in Fischer et al. (3).
Mechanism underlying EE. Other than a few genes involved in synaptic function, relatively little is known about the mechanism underlying EE (12-14). Since histone acetylation, an epigenetic mechanism regulating gene expression via chromatin remodeling, has recently been implicated in synaptic plasticity and learning behavior (15-18), the induction of a transcriptional program by EE that leads to activation of plasticity genes was evaluated. Wild type mice were subjected to EE and hippocampal and cortical brain lysates were obtained 3, 24 h or 2 weeks later (n=3/group) by acid extraction and probed with antibodies detecting histone-tail modification that indicate active chromatin. Increases in hippocampal H3 (K-9, K14) and H4 (K-5) and in cortical H3 (K-9) and H4 (K-5) acetylation were observed. […] No changes in H4 acetylation were observed when the Ac-H4 (K,8,12,16) antibody was used, which is likely due to the fact that H4-K16 is a marker of condensed chromatin. EE induced hippocampal and cortical histone 3 (H3) and histone 4 (H4) acetylation and […] as soon as 3 hours after treatment (FIGS. 3a, b). […] To investigate whether inhibition of HDACs mimics the effects of EE, SB was administered daily [ip] into wild type mice for 4 weeks (FIG. 3c). […] Two days after the last injection mice were trained in the fear conditioning paradigm. […] Locomotor activity or basal anxiety was not altered in SB-injected mice (FIG. 8c).
The effect of sodiumbutyrate injection on learning, basal anxiety, explorative behavior and brain plasticity. C57BL/6J mice were subjected to fear conditioning and injected intraperitoneally [ip] with 1.2 g/kg sodiumbutyrate (SB, n=8) or saline (vehicle; n=8) immediately afterwards. […] C57BL/6J mice were implanted with microcannulae into the lateral brain ventricles (icv) and injected with either 100 ng SB, 50 ng TSA or vehicle immediately after fear conditioning (n=8/group). […] C57BL/6J were daily injected [ip] with SB or saline (n=8/group) for 4 weeks before all mice were subjected to the elevated plus maze and open field test. […] Immunoblots were quantified relative to the optical density of the vehicle-group (set to 1). […] The analysis was performed as described under FIG. 1g.
(§1) The effects of SAHA and MS-275, relative to sodium butyrate (SB), on the hippocampus dependent associative learning in wildtype mice.
Mice were injected 10 days with either 5 mg/kg of MS275 or 25 mg/kg of UW_WT-I—06 or UW_WT-I—05 before training and memory tests as described above. […] Andorfer, C. et al. Cell-cycle reentry and cell death in transgenic mice expressing nonmutant human tau isoforms. J neurosci 25, 5446-5454 (2005). • 2. Santacruz, K. et al. Tau suppression in a neurodegenerative mouse model improves memory function. Science 309, 476-481 (2005). • 3. Fischer, A., Sananbenesi, F., Pang, P. T., Lu, B. & Tsai, L. H. Opposing roles of transient and prolonged expression of p25 in synaptic plasticity and hippocampus-dependent memory. Neuron 48, 825-838 (2005). • 4. Cruz, J. C. & Tsai, L. H. Jekyll and Hyde kinase: roles for Cdk5 in brain development and disease. Curr Opin Neurobiol. 14, 390-394 (2004). • 5. Cruz, J. C., Tseng, H. C., Goldman, J. A., Shih, H. & Tsai, L. H. Aberrant Cdk5 activation by p25 triggers pathological events leading to neurodegeneration and neurofibrillary tangles. Neuron 40, 471-83 (2003). • 6. Nithianantharajah, J. & Hannan, A. J. Enriched environments, experience-dependent plasticity and disorders of the nervous system. Nat Rev Neurosci 7, 697-709 (2006). • 7. Kim, J. J. & Fanselow, M. S. Modality-specific retrograde amnesia of fear. Science 256, 675-7 (1992). • 8. Gilmore, E. C. & Herrup, K. Neocortical cell migration: GABAergic neurons and cells in layers I and VI move in a cyclin-dependent kinase 5-independent manner. J Neurosci 21, 9690-700 (2001). • 9. […]

[2] = system: lys9lys 14 on histone 3 and lys5 on histone 4; test: Histone acetylation in brain lysates of treated mice; assay type: in vivo; conditions: compared to saline treated mice
Procedure: Immunoblotting and staining: Lysates for immunoblotting were prepared as described by Fischer et al. (3). To isolate histones, brain tissue was homogenized in TX-buffer (50 mM Tris HCL, 150 mM NACL, 2 mM EDTA, 1% Triton-100) and incubated at 4° C. for 15 min prior to centrifugation at 200 rpm for 10 min. After a wash-step in TX-buffer the pellet was dissolved in TX-buffer containing 0.2M HCl and incubated on ice for 30 min, before a second centrifugation at 10000 rpm for 10 min. The supernatant was either dialysed or directly used for immunoblotting. Antibodies were used in 1:1000 concentrations. All antibodies detecting histones and anti-PSD-95 were form Upstate (Lake Placid, N.Y.). Anti-synaptophysin (SVP38) was from Sigma. Anti-neuronal nuclei (neuN) and anti-growth associated protein (Gap43) were from Chemicon (Temecula, Calif.) and anti-N-cadherin, anti-β-catenin were from Santa Cruz (Santa Cruz, Calif.). Immunostaining was performed as described by Fischer et al. (3). Antibodies mentioned above were used in a 1:500 dilution. Anti-MAP-2 antibody (Sigma) was used in a 1:200 dilution.
as §1

[3] = system: dentate gyrus; test: Neurogenesis in dentate gyrus (BrdU, DCX); design: species or system mice; conditions: mouse, in vivo
From the text: (§2) HDAC inhibitors regulate neuronal activity and neurogenesis in dentate gyrus. […] Thus, activity induced c-fos expression may also be used to evaluate the effect of HDAC inhibitors on hippocampus dependent learning. FIG. 17d is a bar graph depicting the significant enhancement by SAHA.

[4] = system: c-fos; test: c-fos positive cells after fear conditioning training; assay type: in vivo, mice; conditions: compared to saline treated group
From the text: as §2

Row | Structure (SMILES) | freezing behavior during the memory test ([1]; icv 100 ng SB or 50 ng TSA immediately after fear conditioning, test 24 h later, P<0.0001) | associative learning ([1]; wild type mice, intraperitoneal [ip] and intracerebroventricular [icv] injections) | associative learning, contextual fear conditioning paradigm [1] | acetylation of lys9lys 14 on histone 3 and lys5 on histone 4 in brain lysates [2] | BrdU positive cells in the subgranule zone of the dentate gyrus [3] | DCX (marker for newly generated neurons) labeled cells in dentate gyrus [3] | number of c-fos positive cells [4]
1 | CC(/C=C/C(=O)NO)=C\[C@@H](C)C(=O)c1ccc(N(C)C)cc1 [TSA, trichostatin A] | more freezing behavior than vehicle injected mice | significantly facilitated associative learning |  |  |  |  | 
2 | O=C(CCCCCCC(=O)Nc1ccccc1)NO [SAHA, suberoylanilide hydroxamic acid] |  |  | more potent than SB in facilitating associative learning | increased acetylation of lys9lys 14 on histone 3 and lys5 on histone 4 | increased BrdU positive cells | labeled more cells | higher number of c-fos positive cells
3 | Nc1ccccc1NC(=O)c1ccc(CNC(=O)OCc2cccnc2)cc1 [MS-275] |  |  | does not facilitate associative learning | increased acetylation of lys9lys 14 on histone 3 and lys5 on histone 4 |  | not | lower number of c-fos positive cells
